In ChEMBL document CHEMBL1201862, “PubChem BioAssay data set” (2004):
One block for each compound: values may come before it. Calls of active or inactive are those of the source.

What was measured:
[1] = target: Dual specificity protein kinase CLK1 (Homo sapiens, UniProt P49759); experiment: inhibition of human CLK1 activity – biochemical, cherry-picked samples, selectivity assay for Dyrk1A inhibitor project, dose response (AID 588811)
[2] = target: Dual specificity tyrosine-phosphorylation-regulated kinase 1A (Rattus norvegicus, UniProt Q63470); assay type: biochemical, Homo sapiens
[3] = A549 cell cytotoxicity, dose response, cytotoxicity control, plate reader, cherry-pick, antagonist series (AID 743412); assay type: functional, cell-based
[4] = toxicity toward HepG2 liver cells – cell-based, plate reader, cherry-pick, antagonist series, cytotoxicity control, dose response (AID 743416); assay type: functional
[5] = target: 5-hydroxytryptamine receptor 5A (Homo sapiens, UniProt P47898); experiment: Counterscreen for agonists of OPRM1-OPRD1 heterodimerization: luminescence-based cell-based high throughput dose response assay to identify agonists of 5-hydroxytryptamine (serotonin) 5A receptor (HTR5A). [Related pubchem assays (depositor defined):AID504326, AID504355, AID504692, AID504904, AID504905]; assay type: functional
Chain of 5-hydroxytryptamine receptor 5A (P47898 whole entry): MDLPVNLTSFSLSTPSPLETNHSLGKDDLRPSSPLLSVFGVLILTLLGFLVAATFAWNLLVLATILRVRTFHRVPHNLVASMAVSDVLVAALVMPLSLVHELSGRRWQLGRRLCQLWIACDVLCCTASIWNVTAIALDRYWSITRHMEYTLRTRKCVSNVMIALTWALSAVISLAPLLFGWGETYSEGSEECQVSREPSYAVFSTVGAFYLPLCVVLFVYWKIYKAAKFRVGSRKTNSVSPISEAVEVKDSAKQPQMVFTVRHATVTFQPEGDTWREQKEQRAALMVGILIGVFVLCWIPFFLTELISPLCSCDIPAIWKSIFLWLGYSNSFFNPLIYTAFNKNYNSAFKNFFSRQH

[6] = blockade of melanocortin 4 receptor signaling – cell-based, plate reader, cherry pick, counter-screen for LGR2 antagonist project, dose response (AID 743444); assay type: functional;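 note: transfected HEK 293 cells stimulated with alpha-MSH peptide; potency of inhibitors of the alpha-MSH evoked signal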
[7] = blockers of bursicon-stimulated LGR2 cAMP reporter – cell-based, HEK293, CRE-luciferase reporter, cherry pick, set 2, dose response (AID 743343); assay type: functional;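 note: transfected cells were stimulated with diluted bursicon conditioned medium after compound addition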
[8] = viability loss in HEK293 cells – cell-based, plate reader, cherry-picked samples, cytotoxicity control, dose response (AID 743446); assay type: functional
[9] = target: Delta-type opioid receptor (Homo sapiens, UniProt P41143); experiment: Counterscreen for agonists of heterodimerization of the mu 1 (OPRM1) and delta 1 (OPRD1) opioid receptors: Luminescence-based cell-based high throughput dose response assay to identify agonists of OPRD1 homodimerization. [Related pubchem assays (depositor defined):AID504326, AID504355, AID504692, AID504904, AID504905]; assay type: functional
Chain of Delta-type opioid receptor (P41143 whole entry): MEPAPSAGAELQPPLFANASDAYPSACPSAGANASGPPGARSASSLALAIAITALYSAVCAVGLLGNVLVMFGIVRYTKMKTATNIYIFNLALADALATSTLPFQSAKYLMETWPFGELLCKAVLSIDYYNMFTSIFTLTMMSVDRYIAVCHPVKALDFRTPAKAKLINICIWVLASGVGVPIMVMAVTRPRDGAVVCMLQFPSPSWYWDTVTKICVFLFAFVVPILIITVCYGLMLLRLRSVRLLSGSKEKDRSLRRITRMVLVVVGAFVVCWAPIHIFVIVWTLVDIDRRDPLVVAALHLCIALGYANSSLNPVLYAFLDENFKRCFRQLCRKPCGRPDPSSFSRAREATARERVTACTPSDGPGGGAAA

Mu-type opioid receptor = Mu-type opioid receptor (Homo sapiens, UniProt P35372); experiment: Counterscreen for agonists of heterodimerization of the mu 1 (OPRM1) and delta 1 (OPRD1) opioid receptors: Luminescence-based cell-based high throughput dose response assay to identify agonists of OPRM1 homodimerization.; assay type: functional;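 note: U2OS cells expressing OPRM1 and beta-arrestin as split beta-galactosidase partners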
Chain of Mu-type opioid receptor (P35372 whole entry): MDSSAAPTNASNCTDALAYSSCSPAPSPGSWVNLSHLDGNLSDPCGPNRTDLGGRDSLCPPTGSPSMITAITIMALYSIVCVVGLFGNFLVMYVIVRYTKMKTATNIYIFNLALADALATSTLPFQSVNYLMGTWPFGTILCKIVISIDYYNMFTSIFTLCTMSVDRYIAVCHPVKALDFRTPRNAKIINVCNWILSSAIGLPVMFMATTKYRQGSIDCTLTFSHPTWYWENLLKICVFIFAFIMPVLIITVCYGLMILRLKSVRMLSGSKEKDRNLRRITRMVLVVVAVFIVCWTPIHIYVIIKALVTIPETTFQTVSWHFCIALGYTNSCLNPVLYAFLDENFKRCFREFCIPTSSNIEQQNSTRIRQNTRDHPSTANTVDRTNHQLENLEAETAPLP

[10] = target: Beta-2 adrenergic receptor (Homo sapiens, UniProt P07550); experiment: ADRB2 activation measured by internalization – cell-based, FAP fluorogen, flow cytometry, cherry pick 1, dose response (AID 588763); assay type: functional
Chain of Beta-2 adrenergic receptor (P07550 whole entry): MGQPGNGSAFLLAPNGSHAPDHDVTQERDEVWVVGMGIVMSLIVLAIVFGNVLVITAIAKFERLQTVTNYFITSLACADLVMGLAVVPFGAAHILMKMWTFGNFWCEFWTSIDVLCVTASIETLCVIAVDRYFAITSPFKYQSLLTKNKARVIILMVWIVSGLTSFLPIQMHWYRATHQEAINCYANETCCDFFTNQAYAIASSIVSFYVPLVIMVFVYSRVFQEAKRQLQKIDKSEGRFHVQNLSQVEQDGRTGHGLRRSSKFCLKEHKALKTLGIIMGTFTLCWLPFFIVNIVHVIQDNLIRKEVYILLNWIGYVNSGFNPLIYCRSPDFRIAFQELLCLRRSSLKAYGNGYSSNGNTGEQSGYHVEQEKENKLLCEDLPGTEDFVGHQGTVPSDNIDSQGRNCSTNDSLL

[11] = target: T1, Heat shock factor protein 1 (Mus musculus, UniProt P38532); experiment: decrease of HSF1-responsive luciferase luminescence – cell-based, NIH3T3, dose retest, confirmation (AID 2382); assay type: functional;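 note: NIH3T3 fibroblasts with HSF1-driven luciferase reporter stressed by proteasome inhibitor MG132; luminescence from HSF1-driven luciferase expression after 8 hours of MG132 stress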
T1 sequence (P38532 whole entry): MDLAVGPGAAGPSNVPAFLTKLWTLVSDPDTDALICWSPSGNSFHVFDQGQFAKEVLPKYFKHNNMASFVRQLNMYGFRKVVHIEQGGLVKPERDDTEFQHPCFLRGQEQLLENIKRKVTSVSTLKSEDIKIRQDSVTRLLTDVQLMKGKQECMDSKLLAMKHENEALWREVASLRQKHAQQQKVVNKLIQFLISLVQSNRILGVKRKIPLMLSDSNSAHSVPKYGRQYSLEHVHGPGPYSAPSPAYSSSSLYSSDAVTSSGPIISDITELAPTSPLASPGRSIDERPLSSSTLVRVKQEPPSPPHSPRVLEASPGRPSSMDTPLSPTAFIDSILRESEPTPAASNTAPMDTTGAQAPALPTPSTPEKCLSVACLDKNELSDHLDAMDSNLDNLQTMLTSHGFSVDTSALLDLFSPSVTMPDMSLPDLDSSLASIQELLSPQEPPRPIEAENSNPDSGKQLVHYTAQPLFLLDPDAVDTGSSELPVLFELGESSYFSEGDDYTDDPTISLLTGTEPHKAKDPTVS

HEK293 = experiment: EBV LMP1 TES2 canonical NF-kB signalling blockers – cell-based, HEK293, luciferase, cherry-pick, dose response (AID 588343); assay type: functional; details: Homo sapiens
[12] = target: T2, Alkaline phosphatase, tissue-nonspecific isozyme (Homo sapiens, UniProt P05186); experiment: potency against alkaline phosphatase TNAP – biochemical, luminescent, dose response, SAR follow-up (AID 1056)
T2 sequence (P05186 whole entry): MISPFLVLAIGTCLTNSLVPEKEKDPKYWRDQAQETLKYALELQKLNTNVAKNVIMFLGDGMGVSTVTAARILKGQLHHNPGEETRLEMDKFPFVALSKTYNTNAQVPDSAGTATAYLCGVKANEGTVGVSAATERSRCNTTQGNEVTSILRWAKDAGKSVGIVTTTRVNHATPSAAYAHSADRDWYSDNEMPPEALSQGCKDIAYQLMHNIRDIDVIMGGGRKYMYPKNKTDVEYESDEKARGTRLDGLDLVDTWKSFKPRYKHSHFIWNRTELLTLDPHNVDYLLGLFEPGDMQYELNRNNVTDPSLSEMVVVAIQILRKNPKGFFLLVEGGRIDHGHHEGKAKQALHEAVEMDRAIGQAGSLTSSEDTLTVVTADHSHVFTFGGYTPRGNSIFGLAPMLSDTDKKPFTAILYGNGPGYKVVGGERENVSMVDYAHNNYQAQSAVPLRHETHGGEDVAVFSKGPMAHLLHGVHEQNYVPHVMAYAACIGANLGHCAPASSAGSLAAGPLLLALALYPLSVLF

[13] = target: Glyceraldehyde-3-phosphate dehydrogenase (Homo sapiens, UniProt P04406)
Chain of Glyceraldehyde-3-phosphate dehydrogenase (P04406 whole entry): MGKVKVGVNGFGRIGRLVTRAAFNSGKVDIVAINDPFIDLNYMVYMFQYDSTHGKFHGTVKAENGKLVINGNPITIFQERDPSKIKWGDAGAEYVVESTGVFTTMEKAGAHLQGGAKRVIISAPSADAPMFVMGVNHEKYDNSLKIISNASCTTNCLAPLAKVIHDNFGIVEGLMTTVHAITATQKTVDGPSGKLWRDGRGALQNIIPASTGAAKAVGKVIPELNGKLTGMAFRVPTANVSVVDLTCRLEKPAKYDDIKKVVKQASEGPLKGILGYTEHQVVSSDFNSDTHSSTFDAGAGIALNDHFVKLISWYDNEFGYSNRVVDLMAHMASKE

[14] = cAMP pathway inhibition in counterscreen cell line – TR-FRET cAMP detection, counter-screen for MC4R biased antagonist project, dose response (AID 602305); assay type: functional, cell-based;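 note: U2OS cells stimulated with forskolin near its EC80 as the cAMP inducer; potency is for inhibition of forskolin-stimulated cAMP signaling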
Melanocortin receptor 4 = Melanocortin receptor 4 (Homo sapiens, UniProt P32245); experiment: inhibitors of MC4R cAMP signaling – cell-based, TR-FRET, biased antagonists, dose response (AID 602298); assay type: functional;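 note: antagonist potency against agonist-stimulated cAMP production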
Chain of Melanocortin receptor 4 (P32245 whole entry): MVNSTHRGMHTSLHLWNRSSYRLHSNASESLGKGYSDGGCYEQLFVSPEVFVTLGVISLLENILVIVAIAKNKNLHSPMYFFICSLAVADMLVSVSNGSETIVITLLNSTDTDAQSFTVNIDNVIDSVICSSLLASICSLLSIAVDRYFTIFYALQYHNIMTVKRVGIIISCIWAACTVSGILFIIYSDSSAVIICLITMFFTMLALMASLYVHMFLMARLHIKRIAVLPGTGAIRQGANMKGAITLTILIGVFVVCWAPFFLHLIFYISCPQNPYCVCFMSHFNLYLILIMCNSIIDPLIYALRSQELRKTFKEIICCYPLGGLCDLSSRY

CAAX prenyl protease 2 = CAAX prenyl protease 2 (Homo sapiens, UniProt Q9Y256); experiment: inhibition of Ras-converting CAAX protease Rce1 – biochemical, yeast membranes, quenched-peptide fluorescence, cherry-pick, dose response (AID 588849)
Chain of CAAX prenyl protease 2 (Q9Y256 whole entry): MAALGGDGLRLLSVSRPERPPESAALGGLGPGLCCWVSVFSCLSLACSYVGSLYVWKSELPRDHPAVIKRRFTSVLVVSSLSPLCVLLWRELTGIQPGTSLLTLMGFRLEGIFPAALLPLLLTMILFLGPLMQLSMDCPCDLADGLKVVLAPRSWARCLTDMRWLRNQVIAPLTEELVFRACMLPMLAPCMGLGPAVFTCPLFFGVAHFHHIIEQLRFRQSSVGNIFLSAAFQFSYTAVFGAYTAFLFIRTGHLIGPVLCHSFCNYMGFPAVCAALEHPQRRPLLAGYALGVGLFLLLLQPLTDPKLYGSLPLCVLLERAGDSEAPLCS

Trypsin = Trypsin (Sus scrofa, UniProt P00761); experiment: trypsin protease activity blockade – biochemical, quenched peptide fluorescence, cherry-pick, selectivity assay for Rce1 protease inhibitor project, dose response (AID 488789)
Chain of Trypsin (P00761 whole entry): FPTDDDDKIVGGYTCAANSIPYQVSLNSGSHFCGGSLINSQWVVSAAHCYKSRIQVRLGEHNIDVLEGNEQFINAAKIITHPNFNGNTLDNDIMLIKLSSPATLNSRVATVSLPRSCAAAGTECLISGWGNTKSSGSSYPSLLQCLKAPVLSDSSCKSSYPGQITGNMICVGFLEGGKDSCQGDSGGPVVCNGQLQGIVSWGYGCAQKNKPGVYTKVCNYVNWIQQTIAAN

Chain of Dual specificity protein kinase CLK1 (P49759 whole entry): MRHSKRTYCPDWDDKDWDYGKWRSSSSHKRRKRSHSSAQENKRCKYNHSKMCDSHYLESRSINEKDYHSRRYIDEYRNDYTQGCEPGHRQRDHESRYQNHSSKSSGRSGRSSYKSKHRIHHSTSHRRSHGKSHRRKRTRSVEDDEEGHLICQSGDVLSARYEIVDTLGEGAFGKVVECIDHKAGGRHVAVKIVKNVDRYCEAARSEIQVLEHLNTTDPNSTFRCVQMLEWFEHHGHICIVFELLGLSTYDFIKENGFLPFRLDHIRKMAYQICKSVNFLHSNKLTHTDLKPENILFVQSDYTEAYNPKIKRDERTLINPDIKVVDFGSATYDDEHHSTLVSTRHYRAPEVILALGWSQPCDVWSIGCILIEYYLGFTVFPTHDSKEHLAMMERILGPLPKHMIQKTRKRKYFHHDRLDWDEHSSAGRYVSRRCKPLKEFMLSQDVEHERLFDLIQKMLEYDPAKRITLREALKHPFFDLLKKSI

AC50 [1]: 9.67 µM (active)
AC50 [2]: 5.3 µM (active)
Structure (SMILES): COc1cccc(NC(=O)Nc2ccc3c(c2)N(C)C(=O)CS3)c1

Structure (SMILES): CC(C)n1ncc2c(C(=O)Nc3cccc(C#N)c3)cc(C3CC3)nc21
AC50 [3]: 39.1 µM (active)
AC50 [4]: 21.8 µM (active)
EC50 [5]: > 92.5 µM (inactive)
AC50 [6]: 0.789 µM (active)
AC50 [7]: 1.46 µM (active)
AC50 [8]: 24.3 µM (active)
EC50 [9]: > 92.5 µM (inactive)
EC50 (Mu-type opioid receptor): 18 µM (inactive)

EC50 [10]: 1.18 µM (active)
Structure (SMILES): Nc1cc(N)nc(SCc2cc([N+](=O)[O-])cc3c2OCOC3)n1

Structure (SMILES): Cc1ccc(-n2cc(C(=O)c3ccccc3O)cn2)cc1
EC50 [11]: < 0.16 µM (active)
AC50 (HEK293): 0.725 µM (active)

AC50 [1]: 16.9 µM (active)
IC50 [12]: 3.71 µM (active)
IC50 [13]: > 10 µM (inconclusive)
AC50 [2]: 7.28 µM (active)
Structure (SMILES): COc1ccc2c(c1)CCc1c-2n[nH]c1C(=O)O

Structure (SMILES): CC(C)CN(C(=O)COC(=O)c1cnc(Cl)c(Cl)c1)c1c(N)n(Cc2ccccc2)c(=O)[nH]c1=O
IC50 [14]: > 64.6 µM (inactive)
IC50 (Melanocortin receptor 4): 11.1 µM (inactive)

AC50 (CAAX prenyl protease 2): 15.3 µM (active)
AC50 (Trypsin): 10.9 µM (active)
Structure (SMILES): Cc1cc(C)c2nc(-c3ccco3)cc(C(=O)O)c2c1

Structure (SMILES): O=C(COC(=O)CNS(=O)(=O)c1cccc(Br)c1)Nc1ccccc1Sc1ccccc1
IC50 [14]: > 64.6 µM (inactive)
IC50 (Melanocortin receptor 4): 8.42 µM (active)

Structure (SMILES): COc1ccc2cc(-c3cc(C(=O)OCC(=O)Nc4c(C)n(C)n(-c5ccccc5)c4=O)c4ccccc4n3)ccc2c1
AC50 (HEK293): 1.07 µM (active)
